Paper PMC8001000, “Pitfalls in the Immunochemical Determination of β-Lactam Antibiotics in Water” (Antibiotics, 2021)
Where two headings read alike, the source gives them in different places.

Assays:
[1] = test system: monoclonal mouse anti-AMX antibody A1463 (clone 1.BB.832); test: indirect competitive ELISA (calibration curves of β-lactams and hydrolysis products); assay type: binding; conditions: for reduction of LOD by hydrolysis: after hydrolysis; for IC50: read-out: IC50 (ELISA calibration curve)
Experimental: For the preparation of standards (calibrators), stock solutions of each compound with a mass concentration of approximately 1 g/L were prepared gravimetrically by weighing the respective compound and amount of solvent. Solvents for these stock solutions were ethanol for amoxicillin piperazine-2,5-dione and 3-(4-hydroxyphenyl)pyrazin-2-ol, or Milli-Q water for all other compounds. Standard solutions of each compound were prepared volumetrically by serial dilution of the respective stock solution in Milli-Q water. All standards and stock solutions were stored at 4 °C in the amber glass vials.
(§1) For hydrolysis, standards and samples were diluted in 0.1 M sodium hydroxide solution (1:1) the day before analysis in the assay, i.e., the day of coating (see below), and stored at 4 °C until the next day. Samples for reference analysis without hydrolysis were diluted in Milli-Q water (1:1) prior to analysis.
Each cavity of a 96-well microplate was coated with AMX-HSA (or alternatively AMX-BSA) in PBS (47.619 ng/L, 200 µL/well) and incubated for 18 h at RT with shaking at 750 rpm. Afterwards the plate was washed three times with washing buffer (1:60 dilution of washing buffer 60x in Milli-Q water) and the cavities were blocked with 0.1% (w/v) casein in PBS (200 µL/well) for 1 h at 750 rpm and RT. After repeated washing, standards/samples (100 µL/well) and primary antibody (dilution 1:20,000 in Tris for preliminary and cross-reactivity studies, in sample buffer pH 7.6 for sample analysis or in sample buffer pH 8.5 for reference analysis for degree of hydrolysis; 100 µL/well) were added and incubated for 1 h at 750 rpm and RT. Following another washing step, the plate was incubated with secondary antibody (95.238 ng/L, 200 µL/well) for 1 h at 750 rpm at RT. After final washing, cavities were filled with freshly prepared substrate solution (22 mL citrate buffer, 8.5 µL hydrogen peroxide solution, 550 µL TMB stock solution; 200 µL/well) and shaken for 10 min (preliminary and cross-reactivity studies) or 20 min (sample analysis, degree of hydrolysis) at 750 rpm for blue color development. […] Optical density was read at RT at a wavelength of 450 nm with reference at 620 nm. Data points were plotted in Origin® 2019 (OriginLab, Northampton, MA, USA), calibration curves were obtained by fitting a four-parameter logistic function to the measured data points and sample concentrations were determined by correlating concentration values of hydrolyzed standards with O.D. values of hydrolyzed and non-hydrolyzed samples. Each standard (8 per plate) and sample (24 per plate) was analyzed in triplicate with random distribution across the plate to reduce edge effects.

[2] = hydrolysis of AMX in standard solutions and water samples, followed by ELISA; assay type: physicochemical; conditions: for reaction time after which no further shift in the calibration curve was observable (hydrolysis): 0.1 M NaOH
Experimental: While developing and optimizing an indirect competitive ELISA for the determination of AMX, we observed a significant shift in the calibration curves obtained for differently aged standard solutions (calibrators) of AMX in water. […] This shift reached its end point after two months of storage at 4 °C and could be ascribed to hydrolysis of the parent drug by hydrolyzing standard solutions of AMX in 0.1 M NaOH, which yielded a similar calibration curve in the ELISA (see Figure 2).
In order to examine the degree of hydrolysis of AMX in these samples, a parallel analysis in the ELISA without pretreatment with 0.1 M NaOH was carried out and concentration values determined with and without hydrolysis were compared. […] Because of the antibody’s lower affinity towards unhydrolyzed AMX (higher IC50), higher O.D. values are found which correlate with lower concentration values in the calibration curve. This was the case for all of the tested mineral waters after 20 h. Contrarily, for tap water samples (P1–P4) the analysis without hydrolysis led to higher concentration values than the assay featuring hydrolysis, implying that hydrolysis of AMX had already occurred in these samples. […] The reason for that may lie in general properties of tap water containing particles or metal ions, e.g., Cu^2+, which can serve as catalysts for AMX hydrolysis. Furthermore, the storage of the water samples might have an effect as tap water for sample preparation was collected and stored in a glass bottle whereas mineral water samples were taken directly from plastic bottles. Anyhow, the influence of the pH value of the water can be ruled out since the values were within a range from 6.6 to 8.0 and no general trend was observable. The same holds true for ionic constituents (see Supplementary Table S1).
as §1

[3] = non-hydrolyzed standard solutions (freshly prepared / before hydrolysis; pure compounds)
[4] = standards after alkaline hydrolysis (0.1 M NaOH, 24 h at 4 °C)

| Compound | IC50 [1, 3] [nM] | IC50 [1, 4] [nM] | further results |
| --- | --- | --- | --- |
| CC1(C)S[C@@H]2[C@H](NC(=O)COc3ccccc3)C(=O)N2[C@H]1C(=O)O [PenV, penicillin V] | 702 ± 66 | 11.6 ± 2.5 | reduction of LOD by hydrolysis [1]: 85% |
| CC1(C)S[C@@H]2[C@H](NC(=O)Cc3ccccc3)C(=O)N2[C@H]1C(=O)O [PenG, penicillin G] | 700 ± 70 | 11.1 ± 1.7 | reduction of LOD by hydrolysis [1]: 85% |
| CC1(C)SC(C(NC(=O)[C@H](N)c2ccc(O)cc2)C(=O)O)NC1C(=O)O (some centres unmarked) [HP1, amoxicilloic acid] | 7.48 ± 0.58 | – | fold higher affinity of the antibody than to the parent drug AMX ([1]; HP1 vs AMX): approximately 200 fold |
| CC1(C)S[C@@H]2[C@H](NC(=O)C(C(=O)O)c3ccccc3)C(=O)N2[C@H]1C(=O)O (some centres unmarked) [CRB, carbenicillin] | 11 ± 0.4 | 3.8 ± 0.5 | – |
| CC1(C)S[C@@H]2[C@H](NC(=O)[C@H](N)c3ccc(O)cc3)C(=O)N2[C@H]1C(=O)O [AMX, amoxicillin] | 1470 ± 120 | 38.1 ± 3.6 | IC50 ([1]; standard solutions aged for 2 months at 4 °C in water): 52.2 ± 4.4 nM; reaction time after which no further shift in the calibration curve was observable (hydrolysis) ([2]; pH 12.5, 4 °C): 18 h; reaction time after which no further shift in the calibration curve was observable (hydrolysis) ([2]; pH 12.5, RT): 3 h; rate of hydrolysis in drinking water samples ([2]; spiked tap water vs bottled mineral water, after 20 h): much faster in tap water than in bottled mineral water; storage time until shift of calibration curve reached its end point (hydrolysis) ([2]; standard solutions in water, storage at 4 °C): two |
| CC1(C)S[C@@H]2[C@H](NC(=O)[C@H](N)c3ccccc3)C(=O)N2[C@H]1C(=O)O [AMP, ampicillin] | 1350 ± 130 | 36.2 ± 3.7 | – |
| CC1(C)SC(C2NC(=O)C(c3ccc(O)cc3)NC2=O)NC1C(=O)O (centres unmarked) [HP2, amoxicillin piperazine-2,5-dione] | 28700 | – | – |
